From patent publication US9890152B2 (Genentech, Inc., priority 2012, dated 2018)
Where “and” joins values, the source holds several entries; their conditions need not be identical. Identical values can stand only once.

Target: T1, EGFR del746-750 T790M (Homo sapiens, UniProt P00533, DEL746-750/T790M)
T1 construct: purchased Carna Biosciences 08-528
Test: EGFR del746-750 T790M biochemical assay (Caliper mobility shift)
Conditions: 5 μM ATP, 30 min, room temperature; apparent Ki (Morrison) converted by Cheng-Prusoff, Km of ATP 2.1 μM; read-out: EGFR(T790M/d746-750) Ki

T1 sequence (P00533 with tags, fused parts or gaps DEL746-750/T790M limits assumed): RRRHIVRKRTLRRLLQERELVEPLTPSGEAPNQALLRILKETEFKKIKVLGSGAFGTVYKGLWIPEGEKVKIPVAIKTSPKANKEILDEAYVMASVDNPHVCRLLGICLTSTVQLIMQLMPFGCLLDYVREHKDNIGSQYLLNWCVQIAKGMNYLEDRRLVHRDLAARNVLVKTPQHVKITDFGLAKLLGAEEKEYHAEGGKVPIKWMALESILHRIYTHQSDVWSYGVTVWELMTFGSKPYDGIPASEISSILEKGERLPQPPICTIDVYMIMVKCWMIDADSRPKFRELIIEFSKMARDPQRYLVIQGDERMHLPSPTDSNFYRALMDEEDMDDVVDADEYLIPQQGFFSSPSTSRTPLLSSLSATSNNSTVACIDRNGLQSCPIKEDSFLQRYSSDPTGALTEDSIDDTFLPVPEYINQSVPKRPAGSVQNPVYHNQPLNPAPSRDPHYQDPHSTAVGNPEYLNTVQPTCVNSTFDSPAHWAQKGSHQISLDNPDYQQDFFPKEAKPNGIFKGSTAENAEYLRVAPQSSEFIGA

| Ki | Compound |
| --- | --- |
| 13.1 nM | C[C@H](n1c([C@@H](C)O)nc2cnc(Nc3ccnc(OCC(C)(C)S(C)(=O)=O)n3)cc21)C(F)(F)F [Example 609, (R)-1-[6-[2-(2-Methanesulfonyl-2-methylpropoxy)pyrimidin-4-ylamino]-1-((S)-2,2,2-trifluoro-1-methylethyl)-1H-imidazo[4,5-c]pyridin-2-yl]ethanol] |
| 13.2 nM | Cc1nc2cnc(Nc3ccnc(NCC(F)(F)C(N)=O)n3)cc2n1C(C)C [Example 610, 2,2-Difluoro-3-[4-(1-isopropyl-2-methyl-1H-imidazo[4,5-c]pyridin-6-ylamino)pyrimidin-2-ylamino]propionamide] |
| 0.773 nM | CNc1nc(C)c(-c2nccc(Nc3cc4c(cn3)nc(C)n4C(C)C)n2)s1 [Example 611, (1-Isopropyl-2-methyl-1H-imidazo[4,5-c]pyridin-6-yl)-[2-(4-methyl-2-methylaminothiazol-5-yl)pyrimidin-4-yl]amine] |
| 3.34 nM | Cc1nc2cnc(Nc3ccnc(-c4cnc(N)s4)n3)cc2n1C(C)C [Example 614, [2-(2-Aminothiazol-5-yl)pyrimidin-4-yl]-(1-isopropyl-2-methyl-1H-imidazo[4,5-c]pyridin-6-yl)amine] |
| 3.38 nM | CC(C)n1c(CO)nc2cnc(Nc3ccnc(-c4cnc(N)s4)n3)cc21 [Example 615, {6-[2-(2-Aminothiazol-5-yl)pyrimidin-4-ylamino]-1-isopropyl-1H-imidazo[4,5-c]pyridin-2-yl}methanol] |
| 67.8 nM | CC(C)n1c(CO)nc2cnc(Nc3ccnc(C4=CCC(O)CC4)n3)cc21 (centres unmarked) [Example 624, 4-(4-((2-(hydroxymethyl)-1-isopropyl-1H-imidazo[4,5-c]pyridin-6-yl)amino)pyrimidin-2-yl)cyclohex-3-enol] |
| 38.6 nM | Cc1nc2cnc(Nc3ccnc(-c4cn(CC5CC5)nc4Cl)n3)cc2n1C(C)C [Example 625, N-(2-(3-Chloro-1-(cyclopropylmethyl)-1H-pyrazol-4-yl)pyrimidin-4-yl)-1-isopropyl-2-methyl-1H-imidazo[4,5-c]pyridin-6-amine] |
| 4.53 nM | CC(n1cc(C(=O)NC2CCOCC2)c2cnc(Nc3ccnc(-c4cnn(S(=O)(=O)C5CC5)c4)n3)cc21)C(F)(F)F (centres unmarked) [Example 635, 6-(2-(1-(Cyclopropylsulfonyl)-1H-pyrazol-4-yl)pyrimidin-4-ylamino)-N-(tetrahydro-2H-pyran-4-yl)-1-(1,1,1-trifluoropropan-2-yl)-1H-pyrrolo[3,2-c]pyridine-3-carboxamide] |
| 14.4 nM | CC(n1cc(C(=O)NC2CCOCC2)c2cnc(Nc3ccnc(N4CCC(C)(O)CC4)n3)cc21)C(F)(F)F (centres unmarked) [Example 636, 6-(2-(4-Hydroxy-4-methylpiperidin-1-yl)pyrimidin-4-ylamino)-N-(tetrahydro-2H-pyran-4-yl)-1-(1,1,1-trifluoropropan-2-yl)-1H-pyrrolo[3,2-c]pyridine-3-carboxamide] |
| 219 nM | Cc1nc2cnc(Nc3ccnc(N4CCC5(CC4)OCCCO5)n3)cc2n1C(C)C [Example 648] |
| 92 nM and 20 nM | CC(C)n1c(CO)nc2cnc(Nc3ccnc(N4C[C@@H](F)[C@@H](O)C(C)(C)C4)n3)cc21 [Example 650] |
| 9.14 nM | Cc1nc2cnc(Nc3ccnc(N4CCc5cn[nH]c5C4)n3)cc2n1C(C)C [Example 651] |
| 1160 nM | Cc1nc2cnc(Nc3ccnc(NCC4CCS(=O)(=O)C4)n3)cc2n1C(C)C (centres unmarked) [Example 652] |
| 34.3 nM | Cc1nc2cnc(Nc3ccnc(N4CCC5(OCCO5)C(F)C4)n3)cc2n1C(C)C (centres unmarked) [Example 653] |
| 36 nM | CC(C)n1c(CO)nc2cnc(Nc3ccnc(N4CCC5(OCCO5)C(F)C4)n3)cc21 (centres unmarked) [Example 654] |
| 60.8 nM | CO[C@H]1CCN(c2nccc(Nc3cc4c(cn3)nc(CO)n4C(C)C)n2)C[C@H]1F [Example 655] |
| 214 nM | Cc1nc2cnc(Nc3ccnc(OCC(C)(C)S(C)(=O)=O)n3)cc2n1C(C)C [Example 656] |
| 17.4 nM | CO[C@@H]1CCN(c2nccc(Nc3cc4c(cn3)nc(CO)n4[C@@H](C)C(F)(F)F)n2)C[C@@H]1F [Example 657] |
| 44.3 nM | CC(C)n1c([C@@H](C)O)nc2cnc(Nc3ccnc(N4CC[C@@H](O)[C@@H](F)C4)n3)cc21 [Example 658] |
| 39.3 nM | CO[C@@H]1CCN(c2nccc(Nc3cc4c(cn3)nc([C@@H](C)O)n4C(C)C)n2)C[C@@H]1F [Example 659] |
| 171 nM | CC(C)n1c(CO)nc2cnc(Nc3ccnc(OCC(C)(C)S(C)(=O)=O)n3)cc21 [Example 660] |

| Ki | Compound |
| --- | --- |
| 900 nM | CC(C)n1c(CO)nc2cnc(Nc3ccnc(N4CCC(S(C)(=O)=O)CC4)n3)cc21 [Example 661] |
| 68.4 nM | C[C@H](n1c([C@@H](C)O)nc2cnc(Nc3ccnc(N4CCC(S(C)(=O)=O)CC4)n3)cc21)C(F)(F)F [Example 662] |
| 14.5 nM | C[C@H](n1c([C@@H](C)O)nc2cnc(Nc3ccnc(NCC(C)(C)S(C)(=O)=O)n3)cc21)C(F)(F)F [Example 663] |
| 5.68 nM | CC(C)n1cc(C(=O)NC2CCOCC2)c2cnc(Nc3ccnc(NCC(C)(C)S(C)(=O)=O)n3)cc21 [Example 664] |
| 11.5 nM | COC1(CO)CCN(c2nccc(Nc3cc4c(cn3)nc([C@@H](C)O)n4[C@@H](C)C(F)(F)F)n2)CC1 [Example 665] |
| 7.26 nM | C[C@H](n1c(CO)nc2cnc(Nc3ccnc(N4CC[C@@H](O)[C@@H](F)C4)n3)cc21)C(F)(F)F [Example 666] |
| 5.65 nM | C[C@H](n1c(CO)nc2cnc(Nc3ccnc(N4CC[C@H](O)[C@H](F)C4)n3)cc21)C(F)(F)F [Example 667] |
| 451 nM | CC(C)n1c(CO)nc2cnc(Nc3ccnc(N4CCCCC4CCO)n3)cc21 (centres unmarked) [Example 668] |
| 234 nM | CC(C)n1c(CO)nc2cnc(Nc3ccnc(N4CCC(O)(C(F)(F)F)CC4)n3)cc21 [Example 669] |
| 273 nM | CC(C)n1c(CO)nc2cnc(Nc3ccnc(N4CCCCC4CO)n3)cc21 (centres unmarked) [Example 670] |
| 12.6 nM | CCc1ncc(-c2nccc(Nc3cc4c(cn3)nc(CO)n4C(C)C)n2)s1 [Example 671] |
| 135 nM | Cc1nc2cnc(Nc3ccnc(N4CC[C@](C)(O)[C@H](F)C4)n3)cc2n1C(C)C [Example 672] |
| 97.1 nM | CO[C@@]1(C)CCN(c2nccc(Nc3cc4c(cn3)nc(C)n4C(C)C)n2)C[C@H]1F [Example 673] |
| 73 nM | Cc1nc2cnc(Nc3ccnc(N4CC[C@@](C)(O)[C@H](F)C4)n3)cc2n1C(C)C [Example 674] |
| 112 nM | CC(C)n1c(CO)nc2cnc(Nc3ccnc(N4CC[C@@](C)(O)[C@H](F)C4)n3)cc21 [Example 675] |
| 8.18 nM | C[C@H](n1c([C@@H](C)O)nc2cnc(Nc3ccnc(N4CC[C@](C)(O)[C@H](F)C4)n3)cc21)C(F)(F)F [Example 676] |
| 200 nM | Cc1nc2cnc(Nc3ccnc(N4CC[C@@H](C#N)C4)n3)cc2n1C(C)C [Example 678] |
| 168 nM | Cc1nc2cnc(Nc3ccnc(N4CC[C@H](C#N)C4)n3)cc2n1C(C)C [Example 679] |
| 395 nM | Cc1nc2cnc(Nc3ccnc(N4CC[C@@H](O)C4)n3)cc2n1C(C)C [Example 680] |
| 189 nM | Cc1nc2cnc(Nc3ccnc(N4CC[C@H](O)C4)n3)cc2n1C(C)C [Example 681] |
| 135 nM | Cc1nc2cnc(Nc3ccnc(N4CCC(C)(O)CC4)n3)cc2n1C(C)C [Example 682] |

| Ki | Compound |
| --- | --- |
| 13.2 nM | C[C@H](n1c([C@@H](C)O)nc2cnc(Nc3ccnc(N4CCC(C)(O)CC4)n3)cc21)C(F)(F)F [Example 683] |
| 7.67 nM | CO[C@H]1CCN(c2nccc(Nc3cc4c(cn3)nc([C@H](C)O)n4[C@@H](C)C(F)(F)F)n2)C[C@H]1F [Example 684] |
| 26.6 nM | C[C@H](O)c1nc2cnc(Nc3ccnc(N4CC[C@@H](O)[C@@H](F)C4)n3)cc2n1[C@@H](C)C(F)(F)F [Example 685] |
| 18.5 nM | C[C@H](O)c1nc2cnc(Nc3ccnc(N4CC[C@H](O)[C@H](F)C4)n3)cc2n1[C@@H](C)C(F)(F)F [Example 686] |
| 107 nM | C[C@@H](O)c1nc2cnc(Nc3ccnc(N4CC[C@@H](O)[C@@H](F)C4)n3)cc2n1[C@H](C)C(F)(F)F [Example 687] |
| 107 nM | C[C@@H](O)c1nc2cnc(Nc3ccnc(N4CC[C@H](O)[C@H](F)C4)n3)cc2n1[C@H](C)C(F)(F)F [Example 688] |
| 230 nM | C[C@H](O)c1nc2cnc(Nc3ccnc(N4CC[C@@H](O)[C@@H](F)C4)n3)cc2n1[C@H](C)C(F)(F)F [Example 689] |
| 387 nM | C[C@H](O)c1nc2cnc(Nc3ccnc(N4CC[C@H](O)[C@H](F)C4)n3)cc2n1[C@H](C)C(F)(F)F [Example 690] |
| 736 nM | CC(C)n1c(CO)nc2cnc(Nc3ccnc(N4C[C@@H]5C[C@H]4CO5)n3)cc21 [Example 691] |
| 140 nM | CC(C)n1c(CO)nc2cnc(Nc3ccnc(N4CC5CC4C5)n3)cc21 [Example 692] |
| 572 nM | CC(C)n1c(CO)nc2cnc(Nc3ccnc(N4CCC5(CC4)CNC(=O)CO5)n3)cc21 [Example 693] |
| 709 nM | O=C1CC(n2c(CO)nc3cnc(Nc4ccnc(-c5cnn(S(=O)(=O)C6CC6)c5)n4)cc32)CN1 (centres unmarked) [Example 694] |
| 68.8 nM | COCCC(C)(C)n1c(CO)nc2cnc(Nc3ccnc(-c4cnn(S(=O)(=O)C5CC5)c4)n3)cc21 [Example 695] |
| 7.67 nM | CC(CC(F)(F)F)n1c(CO)nc2cnc(Nc3ccnc(-c4cnn(S(=O)(=O)C5CC5)c4)n3)cc21 (centres unmarked) [Example 696] |
| 16.9 nM | CC1CCC(n2c(CO)nc3cnc(Nc4ccnc(-c5cnn(S(=O)(=O)C6CC6)c5)n4)cc32)C1 (centres unmarked) [Example 697] |
| 7.02 nM | CC1CC1n1c(CO)nc2cnc(Nc3ccnc(-c4cnn(S(=O)(=O)C5CC5)c4)n3)cc21 (centres unmarked) [Example 698] |
| 305 nM | CO[C@@H]1CCN(c2nccc(Nc3cc4c(cn3)nc(CO)n4C(C)C)n2)C[C@H]1C [Example 699] |
| 1.65 nM | CCC(C)n1cc(C(=O)NC2COCCOC2)c2cnc(Nc3ccnc(-c4cnn(S(=O)(=O)C5CC5)c4)n3)cc21 (centres unmarked) [Example 700] |
| 4.4 nM | C[C@H](n1c([C@@H](C)O)nc2cnc(Nc3ccnc(N4C[C@@H](F)[C@@H](O)[C@@H](F)C4)n3)cc21)C(F)(F)F [Example 701] |
| 239 nM | CC(C)n1c(CO)nc2cnc(Nc3ccnc(N4CC[C@H](O)[C@@](C)(F)C4)n3)cc21 [Example 702] |
